For series [1], the system named is Lewis lung carcinoma cell line. The series is described as follows: Antitumor activity against mouse LLC cells xenografted in C57BL/6 mouse assessed as tumor growth inhibition at 6 mg/kg, ip qd for 15 days relative to control. It is filed as functional. Particulars: 360 h, route intraperitoneal, read-out: GI.
Series [2] deals with Lewis lung carcinoma cell line. The series is described as follows: Antimetastatic activity against mouse LLC cells xenografted in C57BL/6 mouse assessed as inhibition of lung metastasis at 6 mg/kg, ip qd for 15 days relative to control. Also on record: dose 6 mg/kg. It is filed as functional, organism-based.
Series [3] relates to Mus musculus. The experiment in a line: Toxicity in mouse LLC cells xenografted C57BL/6 mouse assessed as decrease in body weight at 6 mg/kg, ip qd for 15 days. It is filed as organism-based. Also on record: dose 6 mg/kg, route intraperitoneal. The settings on record: in vivo, 360 h.
Series [4] concerns Mus musculus. The experiment in a line: Toxicity in mouse 4T1 cells xenografted […] mouse assessed as decrease in body weight at 3 mg/kg, ip qd for 28 days. Particulars: in vivo, 672 h. Also on record: dose 3 mg/kg, route intraperitoneal. The series is classed as organism-based.
Series [5] concerns 4T1. The experiment in a line: Antitumor activity against mouse 4T1 cells xenografted in […] mouse assessed as tumor growth inhibition at 3 mg/kg, ip qd for 28 days relative to control. The series is classed as functional. The settings on record: 4T1, ip, 672 h, route intraperitoneal, read-out: GI.
The test system of series [6] is 4T1. The series is described as follows: Antimetastatic activity against mouse 4T1 cells xenografted in […] mouse assessed as inhibition of lung metastasis at 3 mg/kg, ip qd for 28 days. The series is classed as functional, organism-based. Also on record: dose 3 mg/kg.
Series [7] concerns Mus musculus. The experiment in a line: Antimetastatic activity against mouse 4T1 cells xenografted in BALB/c mouse assessed as reduction of myeloid derived suppressor cells accumulation in spleen at 3 mg/kg, ip qd for 23 days by flow cytometry analysis relative to control. It is filed as functional. The arrangement: scale not given: the % may be the effect or the level left. The settings on record: route intraperitoneal.

In series [8] the test system is Mus musculus. The series is described as follows: Antimetastatic activity against mouse 4T1 cells xenografted in BALB/c mouse assessed as reduction of myeloid derived suppressor cells accumulation in bone marrow at 3 mg/kg, ip qd for 23 days by flow cytometry analysis relative to control. It is filed as functional. The arrangement: scale not given: the % may be the effect or the level left. The settings on record: route intraperitoneal.

Activity calls are given as the source filed them. The rule behind the calls is not given here.

On to `CC(=O)O[C@H]1C(=O)[C@@]2(C)[C@H]([C@H](OC(=O)c3ccccc3)[C@]3(O)C[C@H](OC(=O)[C@H](O)[C@@H](NC(=O)c4ccccc4)c4ccccc4)C(C)=C1C3(C)C)[C@]1(OC(C)=O)CO[C@@H]1C[C@@H]2O` [PACLITAXEL], for which the inhibition in vivo at 6 mg/kg in series [1] worked out at 26.2%. In addition, the “growth inhibition (GI)” value in series [2] and in series [6] was “inactive” throughout. The Activity result in series [3] is given as “Non-toxic”; in series [4] it was “Non-toxic”; in series [7], 46.7%; in series [8], 79.1%. Besides, the inhibition in vivo at 3 mg/kg in series [5] is 30.5%.

Values taken from ChEMBL document CHEMBL1773045, “Conjugate (MTC-220) of muramyl dipeptide analogue and paclitaxel prevents both tumor growth and metastasis in mice” (J Med Chem, 2011).
